Test results: US11840686B2, “Modulation of prekallikrein (PKK) expression” (Ionis Pharmaceuticals, Inc., priority 2013, dated 2023)
Strand notation (5' to 3'): a small letter for the sugar, then the base; units joined by * are phosphorothioate-linked, units joined directly phosphodiester-linked; [ ] holds rarer units or linkages, { } end groups; capitals alone tell only the bases. e = 2'-O-(2-methoxyethyl) (MOE); [5mC] = 5-methylcytosine; d = 2'-deoxy (DNA)

system: human PKK mRNA; experiment: Antisense inhibition of human PKK mRNA in HepaRG cells, 5,000 nM (Example 2); assay type: cell-based; settings: human PKK mRNA in HepaRG cells; 5-10-5 gapmers; Table 14
In short: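 HepaRG cells, 20,000 per well, were electroporated with 5,000 nM MOE gapmer (phosphorothioate, 5-methylcytosine) and incubated about 24 hours. PKK mRNA was quantified by qRT-PCR with primer probe set RTS3454, normalized to RIBOGREEN total RNA, and expressed as percent inhibition versus untreated controls.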

Row | Substance | % inhibition [%]
1 | 547588 (eA*e[5mC]*eT*eA*eT*dA*dA*d[5mC]*dA*dG*dT*dA*dT*d[5mC]*dA*e[5mC]*eT*eG*eT*e[5mC]; antisense) [compound 547588] | 83
2 | 547589 (eT*eA*eA*e[5mC]*eT*dA*dT*dA*dA*d[5mC]*dA*dG*dT*dA*dT*e[5mC]*eA*e[5mC]*eT*eG; antisense) [compound 547589] | 36
3 | 547590 (eA*eT*eA*eA*e[5mC]*dT*dA*dT*dA*dA*d[5mC]*dA*dG*dT*dA*eT*e[5mC]*eA*e[5mC]*eT; antisense) [compound 547590] | 0
4 | 547591 (e[5mC]*e[5mC]*eT*eA*eT*dA*dA*d[5mC]*dT*dA*dT*dA*dA*d[5mC]*dA*eG*eT*eA*eT*e[5mC]; antisense) [compound 547591] | 23
5 | 547592 (eT*e[5mC]*e[5mC]*eT*eA*dT*dA*dA*d[5mC]*dT*dA*dT*dA*dA*d[5mC]*eA*eG*eT*eA*eT; antisense) [compound 547592] | 27
6 | 547593 (eT*eT*e[5mC]*e[5mC]*eT*dA*dT*dA*dA*d[5mC]*dT*dA*dT*dA*dA*e[5mC]*eA*eG*eT*eA; antisense) [compound 547593] | 29
7 | 547594 (eG*eT*eT*eT*e[5mC]*d[5mC]*dT*dA*dT*dA*dA*d[5mC]*dT*dA*dT*eA*eA*e[5mC]*eA*eG; antisense) [compound 547594] | 19
8 | 547595 (antisense eA*e[5mC]*eT*eA*eG*dT*dT*dT*d[5mC]*d[5mC]*dT*dA*dT*dA*dA*e[5mC]*eT*eA*eT*eA) [compound 547595] | 21
9 | 547596 (antisense eT*eA*e[5mC]*eT*eA*dG*dT*dT*dT*d[5mC]*d[5mC]*dT*dA*dT*dA*eA*e[5mC]*eT*eA*eT) [compound 547596] | 14
10 | 547597 (antisense e[5mC]*eA*eA*eT*eA*dT*d[5mC]*dA*d[5mC]*dT*dG*dT*d[5mC]*d[5mC]*dT*eA*eT*eA*eT*e[5mC]) [compound 547597] | 29
11 | 547598 (antisense eA*e[5mC]*eT*eA*eT*dA*dA*d[5mC]*dA*dA*dT*dA*dT*d[5mC]*dA*e[5mC]*eT*eG*eT*e[5mC]) [compound 547598] | 59
12 | 547599 (antisense eT*eT*e[5mC]*e[5mC]*eT*dA*dT*dA*dA*d[5mC]*dT*dA*dT*dA*dA*e[5mC]*eA*eA*eT*eA) [compound 547599] | 4
13 | 547600 (antisense eT*eT*eT*e[5mC]*e[5mC]*dT*dA*dT*dA*dA*d[5mC]*dT*dA*dT*dA*eA*e[5mC]*eA*eA*eT) [compound 547600] | 26
14 | 547601 (antisense eG*eT*eA*e[5mC]*e[5mC]*dT*dA*dT*dA*dA*d[5mC]*dT*d[5mC]*dT*dA*eA*e[5mC]*eA*eG*eT) [compound 547601] | 75
15 | 547603 (antisense eT*eA*eT*e[5mC]*eA*d[5mC]*dT*dG*dT*dA*d[5mC]*d[5mC]*dT*dA*dT*eA*eA*e[5mC]*eT*e[5mC]) [compound 547603] | 41
16 | 547604 (antisense eA*eT*eA*eT*e[5mC]*dA*d[5mC]*dT*dG*dT*dA*d[5mC]*d[5mC]*dT*dA*eT*eA*eA*e[5mC]*eT) [compound 547604] | 0
17 | 547605 (antisense eA*e[5mC]*eA*eA*eT*dA*dT*d[5mC]*dA*d[5mC]*dT*dG*dT*dA*d[5mC]*e[5mC]*eT*eA*eT*eA) [compound 547605] | 43
18 | 547606 (antisense eA*eA*e[5mC]*eA*eA*dT*dA*dT*d[5mC]*dA*d[5mC]*dT*dG*dT*dA*e[5mC]*e[5mC]*eT*eA*eT) [compound 547606] | 43
19 | 547607 (antisense eT*eA*eA*e[5mC]*eA*dA*dT*dA*dT*d[5mC]*dA*d[5mC]*dT*dG*dT*eA*e[5mC]*e[5mC]*eT*eA) [compound 547607] | 49
